We go through one compound from patent US20040229791A1, “Compositions and methods of modulating TGF-beta activity by fatty acids” (priority 2002, published 2004).

SMILES strings stand for the structures.

Common to all, as to assay type: binding
One assay concerns the target T1, TGF-β1-α2M* complex (Homo sapiens, UniProt P01023).
T1 construct: was purified from pooled citrate-treate human plasma; from tissue; host or cells: pooled citrate-treated human plasma
T1 sequence (P01023 24-1474): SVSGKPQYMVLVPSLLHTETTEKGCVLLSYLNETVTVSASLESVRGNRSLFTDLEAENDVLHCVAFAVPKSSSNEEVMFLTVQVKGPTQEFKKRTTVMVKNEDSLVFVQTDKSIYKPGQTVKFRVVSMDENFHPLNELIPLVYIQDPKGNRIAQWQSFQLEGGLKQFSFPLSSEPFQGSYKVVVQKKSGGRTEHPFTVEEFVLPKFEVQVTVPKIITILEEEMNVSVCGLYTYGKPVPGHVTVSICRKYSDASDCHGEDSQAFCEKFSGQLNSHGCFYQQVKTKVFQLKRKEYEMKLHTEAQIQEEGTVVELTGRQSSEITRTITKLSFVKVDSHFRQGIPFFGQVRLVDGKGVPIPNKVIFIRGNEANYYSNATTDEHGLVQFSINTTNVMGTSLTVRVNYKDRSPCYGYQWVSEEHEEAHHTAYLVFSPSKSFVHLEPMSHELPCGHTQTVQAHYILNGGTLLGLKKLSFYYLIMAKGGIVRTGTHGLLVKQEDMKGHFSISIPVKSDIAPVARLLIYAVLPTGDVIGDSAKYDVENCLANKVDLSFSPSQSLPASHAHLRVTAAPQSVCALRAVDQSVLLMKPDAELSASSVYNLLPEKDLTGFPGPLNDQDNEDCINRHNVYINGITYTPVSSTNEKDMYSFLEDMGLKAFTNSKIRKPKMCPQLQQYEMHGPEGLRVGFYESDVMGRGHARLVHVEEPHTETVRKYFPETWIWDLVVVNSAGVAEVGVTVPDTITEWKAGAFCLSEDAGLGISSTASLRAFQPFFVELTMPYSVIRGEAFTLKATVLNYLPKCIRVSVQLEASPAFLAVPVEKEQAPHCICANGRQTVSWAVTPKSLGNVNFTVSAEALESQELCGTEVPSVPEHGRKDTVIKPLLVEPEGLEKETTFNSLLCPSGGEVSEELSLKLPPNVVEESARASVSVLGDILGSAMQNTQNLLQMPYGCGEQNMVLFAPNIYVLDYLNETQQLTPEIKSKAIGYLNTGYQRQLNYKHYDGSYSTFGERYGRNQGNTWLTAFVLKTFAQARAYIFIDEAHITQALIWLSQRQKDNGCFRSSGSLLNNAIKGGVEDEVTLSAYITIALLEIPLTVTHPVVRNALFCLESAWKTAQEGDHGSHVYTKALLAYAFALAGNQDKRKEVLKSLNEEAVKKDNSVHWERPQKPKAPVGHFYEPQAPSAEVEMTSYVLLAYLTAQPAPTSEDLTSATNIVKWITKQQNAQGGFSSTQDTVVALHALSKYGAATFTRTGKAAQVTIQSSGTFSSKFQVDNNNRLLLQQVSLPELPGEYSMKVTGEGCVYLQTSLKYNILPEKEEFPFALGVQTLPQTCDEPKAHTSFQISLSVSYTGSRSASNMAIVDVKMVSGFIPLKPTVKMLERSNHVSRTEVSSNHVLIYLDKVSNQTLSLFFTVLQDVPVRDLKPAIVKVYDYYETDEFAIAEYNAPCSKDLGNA
Briefly: Inhibition of 125I-TGF-β1 and α2M* complex formation (5% non-denaturing PAGE, autoradiography). As to conditions: ~1 nM 125I-TGF-β1, 10 μg α2M* in 0.05 ml, 30 min room temperature, non-denaturing PAGE; read-out: IC50 for inhibiting complex formation between TGF-β1 and α2M*. Here is the method: Saturated and unsaturated fatty acids are present in plasma and tissues (25,26). The effects of various concentrations of saturated fatty acids on the formation of complexes between ^125I-TGF ? β1 and ? 2M* were examined. ^125I-TGF- ? 1 (1 nM) was incubated μg/ml) in the presence of various concentrations of n-caprylic acid ([…]), lauric acid (12 carbon atoms), myristic acid (14 carbon atoms), palmitic acid (16 carbon atoms) and stearic acid (18 carbon atoms). After 30 min at room temperature, the reaction mixture was analyzed by 5% non-denaturing PAGE and autoradiography, a standard method form determining complex formation between TGF-β and α2M* (12). […] At 100 μM, it inhibited 20% of the complex formation between TGF ? β1 and α2M*. Esterification consistently abolished the inhibitory activities of the fatty acids.
Complex formation of ^125I-TGF-β and ? 2M*—The reaction mixture contained 10 μg of . α2M*, ˜1 nM of ^125I-TGF- ? 1, ^125I-TGF ? β2 or ^125I-TGF ? acids (dissolved in 100% ethanol) in 0.05 ml of 50 mM HEPES-NaOH buffer, pH 7.4. The final concentration of ethanol in the reaction mixture was 0.5%. These fatty acids and fatty acid derivatives were soluble under the experimental conditions. After 30 min at room temperature, the complex formation of ^125I-TGF- ? and. α2M* was determined by 5% non-denaturing polyacrylamide gel electrophoresis (PAGE) or by 7.5% SDS-PAGE following cross-linking by 0.6 mM DSS. After electrophoresis, the gel was stained with Coomassie blue and analyzed by autoradiography. The ^125I-TGF- ? - ? 2M* complex which co-migrated with free ? 2M* was quantified using a PhosphoImager (Fuji).

The target of another assay is T2, 125I-TGF-β1-α2M* complex (Homo sapiens, UniProt P01023).
T2 construct: was purified from pooled citrate-treate human plasma; from tissue; host or cells: pooled citrate-treated human plasma
T2 sequence (P01023 24-1474): T1 sequence (P01023 24-1474)
The assay can be described thus: Dissociation of preformed 125I-TGF-β1-α2M* complex. The following applies: added after 30 min preincubation of complex. On the procedure:
To determine whether fatty acids are capable of dissociating TGF- ? - ? 2M* complexes, various concentrations of arachidonic acid were added to a reaction mixture containing ^125I-TGF- ? 1 or ^125I-TGF ? β3 and α2M* which had been preincubated at room temperature for 30 mi 30 minutes at room temperature, the ^125I-TGF ? β isoform-α2M* complexes in the reaction mixtures were analyzed by 5% non-denaturing PAGE. […] However, lower concentrations of arachidonic acid were effective in inhibiting complex formation of ^125I-TGF- ? 1 and α2M* than were required to dissociate the ^125I-TGF- ? 1- ? 2M* complex.

The target in a further assay is T3, 125I-TGF-β2-α2M* complex (Homo sapiens, UniProt P01023).
T3 construct: was purified from pooled citrate-treate human plasma; from tissue; host or cells: pooled citrate-treated human plasma
T3 sequence (P01023 24-1474): T1 sequence (P01023 24-1474)
The assay can be described thus: Dissociation of preformed 125I-TGF-β2-α2M* complex. The following applies: added after 30 min preincubation of complex.

Take `CCCCC/C=C\C/C=C\C/C=C\C/C=C\CCCC(=O)O` [arachidonic acid]: the IC50 at TGF-β1-α2M* complex was 7.8 ± 1.4 µM. In addition, the “dissociation of the 125I-TGF-β1-α2M* complex” value at 125I-TGF-β1-α2M* complex is “able to dissociate”. On 125I-TGF-β2-α2M* complex, the “concentration dissociating the 125I-TGF-β2-α2M* complex” value is 250 µM.
